According to ChEMBL document CHEMBL3507680, “University of Dundee, Gates Library screen for HepG2 cell viability”:

Assay: Human HepG2 cell viability assay in 384 well format
Assay type: toxicity, cell-based
Set-up: dose 125 nL, time 70.5 hour; cytotoxicity at 70.5 h: concentration not given beside the values
Settings: HepG2 cells, read-out: Inhibition

Compound	cytotoxicity at 70.5 h
COc1ccc(F)cc1C(=O)N1C[C@H]2C[C@H](OC)C[C@H]2C1	-6.25%
CO[C@H]1C[C@@H]2CN(C(=O)Cc3ccc(C)s3)C[C@@H]2C1	-2.91%
CCn1ncc(S(=O)(=O)N[C@@H]2CC[C@@H](n3ccnc3C)[C@@H]2O)c1C	-5.15%
CO[C@@H]1CC[C@@H](NC(=O)c2ccc(OCCN3CCCC3)cc2)[C@H]1O	-4.63%
CO[C@H]1CN(Cc2nc3ccccc3n2C)C[C@@]12CCCO2	7.3%
Cc1cccc(C2CCCN(S(=O)(=O)c3cccnc3)C2)n1 (stereo not given)	-2.36%
CCN(CC)C(=O)c1cc(C2(C)CCN(C(C)=O)CC2)nc(C)n1	4.01%
Cc1c[nH]c(C2CCCN(C(=O)CCc3c(C)n[nH]c3C)C2)n1 (stereo not given)	-2.32%
Cc1cccc(CN2CCCC(c3nccs3)C2)n1 (stereo not given)	-1.28%
Cn1cc(C(=O)N2C[C@H]3C[C@H](Oc4ccccc4)C[C@H]3C2)cn1	-3.01%
Cc1c[nH]nc1C1CCCN(c2cnccn2)C1 (stereo not given)	-2.27%
O=C1NC2(CCc3ccccc31)CCN(C(=O)c1ccncc1)C2 (stereo not given)	-3.88%
Cc1cnc(CC2COCCN(C(=O)c3cncs3)C2)cn1 (stereo not given)	-1.74%
COc1ccc2c(c1)CC(C1CCOCC1)N(C(=O)c1ccnn1C)C2 (stereo not given)	-0.842%
Cn1cccc1C(=O)N1CCCC1c1ccc(CN2CCOCC2)cn1 (stereo not given)	-1.35%
Cc1c(S(=O)(=O)N2CCCC2c2nnc(-c3ccsc3)o2)cnn1C (stereo not given)	0.227%
O=C(c1cnc(C2CC2)nc1)N1CCCC(c2nccs2)C1 (stereo not given)	27.6%
c1ccc(OCCN2CCC(c3cnccn3)CC2)cc1	3.59%
Cc1cc(C)c2nc(C)c(C(=O)N3CCC(N4CCCC4)CC3)cc2c1	-0.523%
CN1CCOC(C)(C(=O)Nc2nc(C(C)(C)C)cs2)C1 (stereo not given)	13.5%
c1cc(C2CCN(C3CCCCC3)C2)n[nH]1 (stereo not given)	2%
Cc1cc(C)nc(C2(C)CCCN2CCO)n1 (stereo not given)	-0.984%
Cc1ccc(Nc2nccc(C3CN(CC(N)=O)C3)n2)nc1	-1.76%

Compound	cytotoxicity at 70.5 h
CC1(C(=O)N2CCOCC2)CN(Cc2ccccn2)CCO1 (stereo not given)	26.2%
CCC(=O)N1CCCC(c2cc(Nc3ncccn3)nc(C)n2)C1 (stereo not given)	-5.83%
Cn1ccc2ccnc(CC3CN(C(=O)C4CCC(F)(F)CC4)C3)c21	3.02%
COc1ccc(CN(C)CC2(O)CCN(C(=O)c3cccn3C)C2)cc1 (stereo not given)	36.1%
CNc1cc(C2CCCN2Cc2ccccc2OCC(=O)O)ccn1 (stereo not given)	-5.11%
CCn1cc(CN2CCc3nc(N4CCOCC4)nc(O)c3CC2)cn1	7.44%
Cc1noc2nc(C3CCN(Cc4ccncc4)CC3)cc(C(F)F)c12	31.7%
CN(C)C(=O)C1CN(Cc2c[nH]cn2)CCN(C2CCOCC2)C1 (stereo not given)	-0.471%
Cc1ccc(CC(=O)N(C)CC2(O)CCN(c3ccccn3)C2)s1 (stereo not given)	-6.87%
CC(=O)N1CCCC1c1cccc(Cc2ccccc2F)n1 (stereo not given)	35.5%
CC(=O)Nc1nc(C2CCN(CC(N)=O)CC2)cs1	-3.74%
Clc1ccc(CN2CCC3(CC2)CC(c2cccnc2)=NO3)cc1	3.85%
CN1CC(=O)N(c2ccccc2)Cc2c(NC3CC3)ncnc21	0.416%
Cc1ccc2nc(C3CCN(CC(C)C)CC3)nc(O)c2c1	-6.3%
CC(C)C1=NOC2(CCN(C(=O)C3CCCC3)CC2)C1	-11.9%
COc1ccccc1-c1cc(C(=O)N(C)C)nc2c1cnn2C	-11.4%
NCCC(=O)N1CCC2(CC1)CN(C(=O)Cc1cccc(Cl)c1)CCO2	-15.5%
NCC(=O)N1CCC2(CC1)CN(C(=O)Cc1ccc(Cl)cc1)CCO2	-14.9%
O=C(C1CCCC1)N1CC2(CCCN(C3COC3)C2)Cc2ccccc21 (stereo not given)	-15.4%
O=C(C1CCCC1)N1CC2(CCN(C3COC3)C2)Cc2ccccc21 (stereo not given)	-10.8%
CC(C)(C)c1nnc2n1C(C(=O)N1CCN(c3ncccn3)CC1)CC2 (stereo not given)	-11.2%
CC(C)(C)c1nnc2n1C(C(=O)N1CCOCC1)CC2 (stereo not given)	-14.7%
CC(C)(C)c1nnc2n1C(C(=O)N1CCCC1)CC2 (stereo not given)	-12.7%

Compound	cytotoxicity at 70.5 h
O=C(N1CCCC1)N1CCn2c(nnc2C2CCCN2)C1 (stereo not given)	-9.61%
O=C(Nc1ccccc1)N1CCn2c(nnc2C2CCCN2)C1 (stereo not given)	-9.71%
CC(C)NC(=O)c1cc(-c2ccc(S(C)(=O)=O)cc2)nc2c1cnn2C	-13.7%
Cc1cc(C(=O)NCC(F)(F)F)c2c(C3CCCN3)noc2n1 (stereo not given)	-7.21%
Cc1cc(C(=O)NCc2cccs2)c2c(C3CCCN3)noc2n1 (stereo not given)	-6.49%
O=C1CC2(CCN(C(=O)C3CCCCC3)C2)Nc2ccccc2N1 (stereo not given)	-9.46%
c1c[nH]c2nc(C3CCCNC3)nc-2c1 (stereo not given)	-13.7%
Cn1nc(C2CCCN2)c2c(C(=O)NCC(F)(F)F)cc(C3CC3)nc21 (stereo not given)	17.1%
CN(C)C(=O)c1nc(-c2ccc(S(C)(=O)=O)cc2)c2cnccn12	-6.88%
CS(=O)(=O)c1ccc(-c2nc(C(=O)N3CCCC3)n3ccccc23)cc1	-8.24%
CN(C)C(=O)N1CCN(c2ccc(Cl)nn2)C(=O)C1	-7.53%
O=C(N1CCOCC1)N1CCN(c2ccc(Cl)nn2)C(=O)C1	-6.24%
CC(C)C(=O)N1Cc2ccccc2CC2(CCCCN2C)C1 (stereo not given)	-10.2%
C[C@H](C(=O)N1Cc2ccccc2CC2(CCCN2C)C1)c1ccccc1 (stereo not given in full)	-5.49%
CS(=O)(=O)N1CC2(CCCN(C3COC3)C2)Cc2ccccc21 (stereo not given)	-3.97%
CS(=O)(=O)N1CC2(CCN(C3COC3)C2)Cc2ccccc21 (stereo not given)	-4.95%
CS(=O)(=O)N1CC2(CCCN(CC3CC3)C2)Cc2ccccc21 (stereo not given)	-3.95%
O=C1Nc2ccccc2CN(CC2CC2)C12CCNC2 (stereo not given)	-3.48%
O=C1NCc2ccccc2CC12CCN(Cc1ccncc1Cl)C2 (stereo not given)	-3.37%
O=C(c1ccc(Cl)s1)N1CCC2(COc3ncccc3S(=O)(=O)N2)C1 (stereo not given)	-8.51%
O=C(c1ccncc1)N1CCC2(COc3ncccc3S(=O)(=O)N2)C1 (stereo not given)	-5.87%
O=C(c1ccccn1)N1CCC2(COc3ncccc3S(=O)(=O)N2)C1 (stereo not given)	-5.57%
O=C(c1ccccn1)N1CCC2(CNS(=O)(=O)c3cnccc3O2)C1 (stereo not given)	17.6%

Compound	cytotoxicity at 70.5 h
CC(=O)N1CCCCC1c1nnc2n1CCNC2 (stereo not given)	17.5%
CC(C)CCN1CCC2(CNS(=O)(=O)c3cccnc3O2)C1 (stereo not given)	26.8%
O=S1(=O)NCC2(CCN(Cc3ccc(Cl)s3)C2)Oc2ncccc21 (stereo not given)	17.2%
O=S1(=O)NCC2(CCN(Cc3ccncc3)CC2)Oc2ncccc21	23.1%
CC(C)NC(=O)C1CCc2nnc(CNC(=O)c3cccnc3)n21 (stereo not given)	-2%
N#Cc1ccc(SCCC(=O)Nc2ccc(CC(N)=O)cc2)cc1	6.57%
COC(=O)C1CN(Cc2cc(F)ccc2Br)CCO1 (stereo not given)	-3.09%
NC(=O)C(NC1CCN(CC2CCCCC2)CC1)c1ccc(F)cc1 (stereo not given)	-9.96%
N#Cc1ccc(SCCC(=O)NC(N)=O)cc1	-12.4%
CSCCC(=O)N1CCN(CC(O)C(C)(C)C)CC1 (stereo not given)	24.8%
CCCS(=O)(=O)CC(=O)Nc1ccsc1	7.39%
CS(=O)(=O)CCC(=O)Nc1ccsc1	-14.4%
CCN(CC)S(=O)(=O)CC(=O)Nc1ccsc1	-14.5%
CN1CCN(C(=O)C2(NC(N)=O)CCCCC2)Cc2ccccc21	-7.76%
O=C(NC1CC1)c1cnc2n1CCCC2	6.87%
N#CCc1ccc(NC(=O)N[C@H](CO)Cc2ccc(O)cc2)cc1	-9.07%
Cc1ccc(CNc2ccn(CCC(N)=O)n2)c(Br)c1	8.15%
COC(=O)[C@@H]1C[C@@H](O)CN1Cc1ccn(-c2ccc(F)cc2)n1	-10.3%
CCC(C)(CC(=O)OC)NCc1c(C)noc1C (stereo not given)	-4.55%
CCc1ccc(C(=O)NC2CCCN(c3ccn(C)n3)C2=O)o1 (stereo not given)	9.2%
CN(Cc1cc(Br)cn1C)C(=O)Cc1cccc(O)c1	-3.37%
COCCN1CCN(Cc2coc(-c3ccccc3Cl)n2)CC1	-10.2%
CCN(CC(=O)NC)C(=O)c1sc(Cc2ccccc2)nc1C	-11.7%

Compound	cytotoxicity at 70.5 h
CCn1ccnc1CN1CCN(C(C)C)CC1C (stereo not given)	-3.75%
CCC1CN(CCNS(C)(=O)=O)c2ccccc2O1 (stereo not given)	-2.49%
CCC1CN(CCCNS(C)(=O)=O)c2ccccc2O1 (stereo not given)	-4.06%
CNC(=O)NC(=O)C(C)N1CCN(C2CCCC2)CC1 (stereo not given)	-4.93%
Cc1cc(C(=O)N2CCN(C(=O)CCC3CCCCC3)CC2)n(C)n1	-18.7%
O=C(CS(=O)(=O)Cc1ccc(Br)cc1F)Nc1cn[nH]c1	4.02%
Cc1ccc(F)cc1S(=O)(=O)NCc1cccc(CS(C)(=O)=O)c1	-6.95%
O=C(Cn1cccn1)NCC1CCCN(Cc2ccccc2)C1 (stereo not given)	-20.2%
CCNC(=O)C(C)NC(=O)Nc1ccccc1Cl (stereo not given)	-6.58%
CS(=O)(=O)NC1CCN(C(=O)c2cc3ccccc3s2)C1 (stereo not given)	-22.9%
CCOC(=O)CN(CC(F)(F)F)C(=O)c1nc(C)n2ccccc12	-15.3%
Cn1c(CCNC(=O)Nc2cn[nH]c2)nc2ccc(F)cc21	-1.73%
CC(C)n1nccc1NC(=O)NCCc1nc2ccc(F)cc2n1C	-11%
Cc1ccc(C(=O)NCC(O)c2ccc(Cl)s2)c(=O)[nH]1 (stereo not given)	-23.1%
Cc1cc(C(=O)NCC(O)c2ccc(Cl)s2)c(C)o1 (stereo not given)	-10.3%
O=c1[nH]c(C2CCOC2)nc2ccc(Br)cc12 (stereo not given)	-2.39%
O=S(=O)(N1CCN(CC2CC2)CC1)N1CCCC1c1ccco1 (stereo not given)	-5.9%
Cc1nc(CN2CCOC(c3ccc(Cl)cc3)C2)oc1C (stereo not given)	-7.95%
Cc1nc(CN2CCCC2Cn2ccnc2C(C)C)nc2ccccc12 (stereo not given)	19.9%
Cc1nc(NC(=O)C2(C)CN(C)CCO2)sc1C (stereo not given)	-2.07%
Cc1nc(C2(O)CCCNCC2)sc1CCOc1ccc(Cl)cc1 (stereo not given)	31.6%
c1ccc(CC2CCN(Cc3ccnc(-c4cccnc4)n3)CC2)cc1	-3.3%
Cn1cc(CN2CCC(c3cc(COc4cccc(Cl)c4)[nH]n3)C2)cn1 (stereo not given)	-0.141%
